Data from PMC9697198, “Carbonic Anhydrase Inhibition Activities of Schiff’s Bases Based on Quinazoline-Linked Benzenesulfonamide” (Molecules, 2022).
Where “and” joins values, the source holds several entries; their conditions need not be identical. Equal values may be shown once.

Tests used:
[1] = target: hCA I (Homo sapiens, UniProt P00915); test: hCA I inhibition, stopped-flow assay; format: biochemical; conditions: stopped-flow technique; mean from three different assays, errors ±5–10%
[2] = target: hCA II (Homo sapiens, UniProt P00918); test: hCA II inhibition, stopped-flow assay; format: biochemical; conditions: stopped-flow technique; mean from three different assays, errors ±5–10%
[3] = target: hCA IX (Homo sapiens, UniProt Q16790); test: hCA IX inhibition, stopped-flow assay; format: biochemical; conditions: for Selectivity Analysis hCA I/IX / Selectivity Analysis hCA II/IX: selectivity index (SI); for Selectivity Analysis hCA I/IX: ratio of Ki hCA I to Ki hCA IX; for Selectivity Analysis hCA II/IX: ratio of Ki hCA II to Ki hCA IX; for Ki: stopped-flow technique, mean from three different assays, errors ±5–10%
[4] = target: hCA XII (Homo sapiens, UniProt O43570); test: hCA XII inhibition, stopped-flow assay; format: biochemical; conditions: for Selectivity Analysis hCA I/XII / Selectivity Analysis hCA II/XII: selectivity index (SI); for Selectivity Analysis hCA I/XII: ratio of Ki hCA I to Ki hCA XII; for Selectivity Analysis hCA II/XII: ratio of Ki hCA II to Ki hCA XII; for Ki: stopped-flow technique, mean from three different assays, errors ±5–10%
Chain of hCA XII (O43570 25-354): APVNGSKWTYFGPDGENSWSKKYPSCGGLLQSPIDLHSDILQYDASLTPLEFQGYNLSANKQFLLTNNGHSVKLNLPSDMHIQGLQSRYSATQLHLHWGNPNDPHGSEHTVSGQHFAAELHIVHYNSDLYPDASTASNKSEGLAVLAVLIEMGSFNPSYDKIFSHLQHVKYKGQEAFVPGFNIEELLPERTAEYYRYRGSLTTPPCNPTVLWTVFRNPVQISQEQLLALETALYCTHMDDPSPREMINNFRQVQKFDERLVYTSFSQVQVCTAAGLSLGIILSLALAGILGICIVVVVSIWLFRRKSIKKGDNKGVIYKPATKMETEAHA

Chain of hCA I (P00915 whole entry): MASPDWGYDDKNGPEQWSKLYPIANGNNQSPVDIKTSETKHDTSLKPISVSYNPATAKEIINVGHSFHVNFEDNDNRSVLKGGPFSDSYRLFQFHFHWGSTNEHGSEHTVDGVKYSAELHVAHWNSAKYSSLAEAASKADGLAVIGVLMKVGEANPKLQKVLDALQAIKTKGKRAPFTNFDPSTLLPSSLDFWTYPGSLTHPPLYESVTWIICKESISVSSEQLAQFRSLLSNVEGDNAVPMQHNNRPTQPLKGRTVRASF

NS(=O)(=O)c1ccc(CCn2c(SCC(=O)NN=Cc3ccccc3F)nc3ccccc3c2=O)cc1 [Compound 10, 4-(2-(2-((2-(2-(2-Fluorobenzylidene)hydrazineyl)-2-oxoethyl)thio)-4-oxoquinazolin-3(4H)-yl)ethyl)benzenesulfonamide]
Ki [1]: 274 nM | Ki [2]: 35.8 nM | Selectivity Analysis hCA I/IX [3]: 13.91 | Selectivity Analysis hCA II/IX [3]: 1.81 | Ki [3]: 19.7 nM | Selectivity Analysis hCA I/XII [4]: 11.96 | Selectivity Analysis hCA II/XII [4]: 1.56 | Ki [4]: 22.9 nM | melting point: 276 to 277 °C

NS(=O)(=O)c1ccc(CCn2c(SCC(=O)N/N=C/c3ccccc3)nc3ccccc3c2=O)cc1 [Compound 4, 4-(2-(2-((2-(2-Benzylidenehydrazineyl)-2-oxoethyl)thio)-4-oxoquinazolin-3(4H)-yl)ethyl)benzenesulfonamide]
Ki [1]: 152 nM | Ki [2]: 52.6 nM | Ki [3]: 61.7 nM | Ki [4]: 38.4 nM | melting point: 296 to 298 °C

CCOC(=O)CSc1nc2ccccc2c(=O)n1CCc1ccc(S(N)(=O)=O)cc1 [Compound 2, Ethyl 2-((4-oxo-3-(4-sulfamoylphenethyl)-3,4-dihydroquinazolin-2-yl)thio)acetate]
Ki [2]: 16.9 to 21.3 nM | Selectivity Analysis hCA II/XII [4]: 0.61 | melting point: 210 to 211 °C

CC(=NNC(=O)CSc1nc2ccccc2c(=O)n1CCc1ccc(S(N)(=O)=O)cc1)c1ccccc1 [Compound 17, 4-(2-(4-Oxo-2-((2-oxo-2-(2-(1-phenylethylidene)hydrazineyl)ethyl)thio)quinazolin-3(4H)-yl)ethyl)benzenesulfonamide]
Ki [1]: 124 nM | Ki [2]: 67.5 nM | Selectivity Analysis hCA I/IX [3]: 2.23 | Selectivity Analysis hCA II/IX [3]: 1.21 | Ki [3]: 55.7 nM | Selectivity Analysis hCA I/XII [4]: 9.78 | Selectivity Analysis hCA II/XII [4]: 5.31 | Ki [4]: 12.7 nM | melting point: 260 to 261 °C

CC(=NNC(=O)CSc1nc2ccccc2c(=O)n1CCc1ccc(S(N)(=O)=O)cc1)c1ccccc1N [Compound 18, 4-(2-(2-((2-(2-(1-(2-Aminophenyl)ethylidene)hydrazineyl)-2-oxoethyl)thio)-4-oxoquinazolin-3(4H)-yl)ethyl)benzenesulfonamide]
Ki [1]: 824 nM | Ki [2]: 35.2 nM | Selectivity Analysis hCA I/IX [3]: 22.46 | Selectivity Analysis hCA II/IX [3]: 0.96 | Ki [3]: 36.7 nM | Selectivity Analysis hCA I/XII [4]: 45.04 | Selectivity Analysis hCA II/XII [4]: 1.92 | Ki [4]: 18.3 nM | melting point: 264 to 265 °C

NS(=O)(=O)c1ccc(CCn2c(SCC(=O)NN=Cc3ccc(Cl)c(Cl)c3)nc3ccccc3c2=O)cc1 [Compound 8, 4-(2-(2-((2-(2-(3,4-Dichlorobenzylidene)hydrazineyl)-2-oxoethyl)thio)-4-oxoquinazolin-3(4H)-yl)ethyl)benzenesulfonamide]
Ki [1]: 1830 nM | Ki [2]: 325 nM | Selectivity Analysis hCA I/IX [3]: 52.5 | Selectivity Analysis hCA II/IX [3]: 9.33 | Ki [3]: 34.8 nM | Selectivity Analysis hCA I/XII [4]: 28.81 | Selectivity Analysis hCA II/XII [4]: 5.12 | Ki [4]: 63.4 nM | melting point: 271 to 272 °C

CC(=NNC(=O)CSc1nc2ccccc2c(=O)n1CCc1ccc(S(N)(=O)=O)cc1)c1ccccc1Cl [Compound 21, 4-(2-(2-((2-(2-(1-(2-Chlorophenyl)ethylidene)hydrazineyl)-2-oxoethyl)thio)-4-oxoquinazolin-3(4H)-yl)ethyl)benzenesulfonamide]
Ki [1]: 1140 nM | Ki [2]: 324 nM | Selectivity Analysis hCA I/IX [3]: 25.27 | Selectivity Analysis hCA II/IX [3]: 7.15 | Ki [3]: 45.3 nM | Selectivity Analysis hCA I/XII [4]: 19.74 | Selectivity Analysis hCA II/XII [4]: 5.59 | Ki [4]: 58 nM | melting point: 273 to 275 °C

NS(=O)(=O)c1ccc(CCn2c(S)nc3ccccc3c2=O)cc1 [Compound 1, 4-(2-(2-mercapto-4-oxoquinazolin-3(4H)-yl)ethyl)benzenesulfonamide]
Ki [1]: 31.5 nM | Ki [2]: 0.62 nM

CN(C)c1ccc(C=NNC(=O)CSc2nc3ccccc3c(=O)n2CCc2ccc(S(N)(=O)=O)cc2)cc1 [Compound 15, 4-(2-(2-((2-(2-(4-(Dimethylamino)benzylidene)hydrazineyl)-2-oxoethyl)thio)-4-oxoquinazolin-3(4H)-yl)ethyl)benzenesulfonamide]
Ki [1]: 582 nM | Ki [2]: 82.1 nM | Selectivity Analysis hCA I/IX [3]: 6.56 | Selectivity Analysis hCA II/IX [3]: 0.92 | Ki [3]: 89.1 nM and 88.6 nM | Selectivity Analysis hCA I/XII [4]: 85.58 | Selectivity Analysis hCA II/XII [4]: 12.07 | Ki [4]: 6.8 nM | melting point: 280 to 281 °C

NS(=O)(=O)c1ccc(CCn2c(SCC(=O)NN=Cc3ccc(Cl)cc3Cl)nc3ccccc3c2=O)cc1 [Compound 7, 4-(2-(2-((2-(2-(2,4-Dichlorobenzylidene)hydrazineyl)-2-oxoethyl)thio)-4-oxoquinazolin-3(4H)-yl)ethyl)benzenesulfonamide]
Ki [1]: 2350 nM | Ki [2]: 433 nM | Selectivity Analysis hCA I/IX [3]: 107 | Selectivity Analysis hCA II/IX [3]: 19.67 | Ki [3]: 22 nM | Selectivity Analysis hCA I/XII [4]: 26.33 | Selectivity Analysis hCA II/XII [4]: 4.84 | Ki [4]: 89.4 nM | melting point: 304 to 305 °C

CC(=NNC(=O)CSc1nc2ccccc2c(=O)n1CCc1ccc(S(N)(=O)=O)cc1)c1cccnc1 [Compound 27, 4-(2-(4-Oxo-2-((2-oxo-2-(2-(1-(pyridin-3-yl)ethylidene)hydrazineyl)ethyl)thio)quinazolin-3(4H)-yl)ethyl)benzenesulfonamide]
Ki [1]: 238 nM | Ki [2]: 10.8 nM | Selectivity Analysis hCA I/IX [3]: 7.07 | Selectivity Analysis hCA II/IX [3]: 0.32 | Ki [3]: 33.7 nM | Selectivity Analysis hCA I/XII [4]: 6.87 | Selectivity Analysis hCA II/XII [4]: 0.31 | Ki [4]: 34.7 nM

CC(=NNC(=O)CSc1nc2ccccc2c(=O)n1CCc1ccc(S(N)(=O)=O)cc1)c1ccc(Cl)cc1 [Compound 23, 4-(2-(2-((2-(2-(1-(4-Chlorophenyl)ethylidene)hydrazineyl)-2-oxoethyl)thio)-4-oxoquinazolin-3(4H)-yl)ethyl)benzenesulfonamide]
Ki [1]: 563 nM | Ki [2]: 157 nM | Selectivity Analysis hCA I/IX [3]: 8.67 | Selectivity Analysis hCA II/IX [3]: 2.41 | Ki [3]: 65 nM | Selectivity Analysis hCA II/XII [4]: 2.56 | Ki [4]: 61.2 nM | melting point: 278 to 280 °C

NS(=O)(=O)c1ccc(CCn2c(SCC(=O)NN=Cc3ccc([N+](=O)[O-])cc3)nc3ccccc3c2=O)cc1 [Compound 14, 4-(2-(2-((2-(2-(4-Nitrobenzylidene)hydrazineyl)-2-oxoethyl)thio)-4-oxoquinazolin-3(4H)-yl)ethyl)benzenesulfonamide]
Ki [1]: 635 nM | Ki [2]: 221 nM | Selectivity Analysis hCA I/IX [3]: 23.62 | Selectivity Analysis hCA II/IX [3]: 8.20 | Ki [3]: 26.9 nM | Selectivity Analysis hCA I/XII [4]: 20.83 | Selectivity Analysis hCA II/XII [4]: 7.23 | Ki [4]: 30.5 nM | melting point: 296 to 297 °C

CC(=NNC(=O)CSc1nc2ccccc2c(=O)n1CCc1ccc(S(N)(=O)=O)cc1)c1ccc(C)cc1 [Compound 25, 4-(2-(4-Oxo-2-((2-oxo-2-(2-(1-(p-tolyl)ethylidene)hydrazineyl)ethyl)thio)quinazolin-3(4H)-yl)ethyl)benzenesulfonamide]
Ki [1]: 627 nM | Ki [2]: 126 nM | Selectivity Analysis hCA I/IX [3]: 14.28 | Selectivity Analysis hCA II/IX [3]: 2.87 | Ki [3]: 43.9 nM | Selectivity Analysis hCA I/XII [4]: 10.90 | Selectivity Analysis hCA II/XII [4]: 2.19 | Ki [4]: 57.5 nM | melting point: 288 to 290 °C

NS(=O)(=O)c1ccc(CCn2c(SCC(=O)NN=Cc3c(Cl)cccc3Cl)nc3ccccc3c2=O)cc1 [Compound 9, 4-(2-(2-((2-(2-(2,6-Dichlorobenzylidene)hydrazineyl)-2-oxoethyl)thio)-4-oxoquinazolin-3(4H)-yl)ethyl)benzenesulfonamide]
Ki [1]: 2260 nM | Ki [2]: 165 nM | Selectivity Analysis hCA I/IX [3]: 45.85 | Selectivity Analysis hCA II/IX [3]: 3.35 | Ki [3]: 49.2 nM | Selectivity Analysis hCA I/XII [4]: 40.35 | Selectivity Analysis hCA II/XII [4]: 2.95 | Ki [4]: 55.9 nM | melting point: 296 to 297 °C

Cc1ccccc1C=NNC(=O)CSc1nc2ccccc2c(=O)n1CCc1ccc(S(N)(=O)=O)cc1 [Compound 12, 4-(2-(2-((2-(2-(2-Methylbenzylidene)hydrazineyl)-2-oxoethyl)thio)-4-oxoquinazolin-3(4H)-yl)ethyl)benzenesulfonamide]
Ki [1]: 338 nM | Ki [2]: 69.4 nM | Selectivity Analysis hCA I/IX [3]: 11.41 | Selectivity Analysis hCA II/IX [3]: 2.34 | Ki [3]: 29.6 nM | Selectivity Analysis hCA I/XII [4]: 5.31 | Selectivity Analysis hCA II/XII [4]: 1.09 | Ki [4]: 63.5 nM | melting point: 239 to 240 °C

NS(=O)(=O)c1ccc(CCn2c(SCC(=O)NN=Cc3ccc(Cl)cc3)nc3ccccc3c2=O)cc1 [Compound 6, 4-(2-(2-((2-(2-(4-Chlorobenzylidene)hydrazineyl)-2-oxoethyl)thio)-4-oxoquinazolin-3(4H)-yl)ethyl)benzenesulfonamide]
Ki [1]: 568 nM | Ki [2]: 127 nM | Selectivity Analysis hCA I/IX [3]: 6.37 | Selectivity Analysis hCA II/IX [3]: 1.42 | Ki [3]: 88.6 nM and 89.1 nM | Selectivity Analysis hCA I/XII [4]: 8.37 | Selectivity Analysis hCA II/XII [4]: 1.87 | Ki [4]: 67.8 nM | melting point: 288 to 289 °C

CC(=NNC(=O)CSc1nc2ccccc2c(=O)n1CCc1ccc(S(N)(=O)=O)cc1)c1ccc(N)cc1 [Compound 19, 4-(2-(2-((2-(2-(1-(4-Aminophenyl)ethylidene)hydrazineyl)-2-oxoethyl)thio)-4-oxoquinazolin-3(4H)-yl)ethyl)benzenesulfonamide]
Ki [1]: 439 nM | Ki [2]: 59.3 nM | Selectivity Analysis hCA I/IX [3]: 75.77 | Selectivity Analysis hCA II/IX [3]: 10.22 | Ki [3]: 5.8 nM | Selectivity Analysis hCA I/XII [4]: 27.64 | Selectivity Analysis hCA II/XII [4]: 3.72 | Ki [4]: 15.9 nM | melting point: 308 to 309 °C
